Test results as given in paper PMC7144376, “Antiviral Effects of Novel 2-Benzoxyl-Phenylpyridine Derivatives” (Molecules, 2020).

System: ADV7
Test: Inhibition of ADV7-induced cytopathic effects in HeLa cells (MTT)
Assay type: cell-based, adenovirus type 7
Conditions: not given
Description: (§1) Figure 1 Antiviral activities of novel 2-benzoxyl-phenylpyridine derivatives against CVB3 and ADV7. […] Hep-2 or HeLa cells were infected with 100 TCID50 of CVB3 or ADV7 for 1.5 h at 37 °C. Then, the inocula were aspirated and the cells were incubated with various concentrations of test compounds for 48 h. Cell viability was determined using the MTT assay. (b) Images showing the morphology of Hep-2 and HeLa cells treated with 120 μM W-9, 160 μM W-13, or 160 μM W-15 (magnification, 20×).
(§2) The antiviral activities of compounds against CVB3 and ADV7 were determined by measuring their inhibition of virus-induced CPEs in acutely infected Hep-2 and HeLa cells, respectively. Confluent cell monolayers in 96-well plates were infected with 100 TCID50 of CVB3 or ADV7 for 1.5 h at 37 °C, inocula were aspirated, and the cells then were incubated with various concentrations of compounds at 37 °C, 5% CO2, for 48 h. CPEs were observed by microscopy and the viability of cells was determined using MTT assays. The concentrations of test compounds required to achieve 50% protection from virus-induced cytopathogenicity (EC50 values) were determined. Adverse effects of tested compounds on host cells were also assessed using the MTT method after exposing uninfected cells to various concentrations of test compounds for 48 h at 37 °C. The CC50 values of compounds were calculated using SPSS software and selectivity indices were the ratio of CC50:EC50. Each experiment was performed in triplicate and at least three times, independently.
In the case of Cc1cccnc1-c1ccc(Br)cc1OC(=O)c1ccccc1 [W12], the “SI (CC50/EC50), ADV7” value is reported as 3.3 and the “inhibitory activity against ADV7 infection (in words)” value is reported as “selective anti-ADV7 activity”.
For CC(=O)c1ccc(-c2ccccn2)c(OC(=O)c2ccccc2)c1 [W14], the “SI (CC50/EC50), ADV7” value was 13.0 and the “inhibitory activity against ADV7 infection (in words)” value was “significant inhibitory activities”.
With Cc1cccc(OC(=O)c2ccccc2)c1-c1ccccn1 [W3] the “SI (CC50/EC50), ADV7” value was 9.8.
In the case of Cc1ccc(OC(=O)c2ccccc2)c(-c2ncccc2C)c1 [W6], the “SI (CC50/EC50), ADV7” value is reported as 4.9 and the “inhibitory activity against ADV7 infection (in words)” value is reported as “significant inhibitory activities”.
For COc1ccc(-c2ccccn2)c(OC(=O)c2ccccc2)c1 [W2], the “SI (CC50/EC50), ADV7” value was greater than 12.9 and the “inhibitory activity against ADV7 infection (in words)” value was “significant inhibitory activities”.
For O=C(Oc1cc(Br)ccc1-c1ccccn1)c1ccccc1 [W10], the “SI (CC50/EC50), ADV7” value was 4.9 and the “inhibitory activity against ADV7 infection (in words)” value was “significant inhibitory activities”.

Same assay, conditions: Human mastadenovirus B, 100 TCID50 ADV7, 48 h, MTT, read-out: EC50 (50% protection from virus-induced cytopathogenicity), ADV7
In the case of Cc1cccnc1-c1ccc(Br)cc1OC(=O)c1ccccc1 [W12], the EC50 is reported as 63.6 ± 16.6 µM.
CC(=O)c1ccc(-c2ccccn2)c(OC(=O)c2ccccc2)c1 [W14] showed an EC50 of 75.4 ± 20.2 µM.
Compound Cc1ccc(OC(=O)c2ccccc2)c(-c2ncccc2C)c1 [W6] has an EC50 of 66 ± 20.1 µM.
In the case of COc1ccc(-c2ccccn2)c(OC(=O)c2ccccc2)c1 [W2], the EC50 is reported as 50.8 ± 16.7 µM.
For O=C(Oc1cc(Br)ccc1-c1ccccn1)c1ccccc1 [W10], the EC50 was 51.1 ± 20.1 µM.

System: CVB3
Test: Inhibition of CVB3-induced cytopathic effects in Hep-2 cells (MTT)
Assay type: cell-based, Coxsackievirus B3
Conditions: not given
Description: as §1, §2
With CC(=O)c1ccc(-c2ccccn2)c(OC(=O)c2ccccc2)c1 [W14] the “SI (CC50/EC50), CVB3” value was 5.6 and the “inhibitory activity against CVB3 infection (in words)” value was “significant inhibitory activities”.
In the case of Cc1cccc(OC(=O)c2ccccc2)c1-c1ccccn1 [W3], the “SI (CC50/EC50), CVB3” value is reported as 6.0.
With Cc1ccc(OC(=O)c2ccccc2)c(-c2ncccc2C)c1 [W6] the “SI (CC50/EC50), CVB3” value was 2.8 and the “inhibitory activity against CVB3 infection (in words)” value was “significant inhibitory activities”.
For COc1ccc(-c2ccccn2)c(OC(=O)c2ccccc2)c1 [W2], the “SI (CC50/EC50), CVB3” value was 2.4 and the “inhibitory activity against CVB3 infection (in words)” value was “significant inhibitory activities”.
In the case of Cc1cccnc1-c1ccc(F)cc1OC(=O)c1ccccc1 [W8], the “SI (CC50/EC50), CVB3” value is reported as 4.4 and the “inhibitory activity against CVB3 infection (in words)” value is reported as “selective antiviral activities against CVB3”.
With O=C(Oc1cc(Br)ccc1-c1ccccn1)c1ccccc1 [W10] the “SI (CC50/EC50), CVB3” value was 5.0 and the “inhibitory activity against CVB3 infection (in words)” value was “significant inhibitory activities”.
For Cc1cccnc1-c1ccc(Cl)cc1OC(=O)c1ccccc1 [W4], the “SI (CC50/EC50), CVB3” value was 4.1 and the “inhibitory activity against CVB3 infection (in words)” value was “selective antiviral activities against CVB3”.

Same assay, conditions: Enterovirus B, 100 TCID50 CVB3, 48 h, MTT, read-out: EC50 (50% protection from virus-induced cytopathogenicity), CVB3
Work on CC(=O)c1ccc(-c2ccccn2)c(OC(=O)c2ccccc2)c1 [W14] yielded an EC50 of 87.1 ± 21.1 µM.
For Cc1ccc(OC(=O)c2ccccc2)c(-c2ncccc2C)c1 [W6], the EC50 was 88.4 ± 19.5 µM.
With COc1ccc(-c2ccccn2)c(OC(=O)c2ccccc2)c1 [W2] the EC50 was 101 ± 14.1 µM.
With Cc1cccnc1-c1ccc(F)cc1OC(=O)c1ccccc1 [W8] the EC50 was 80.1 ± 15 µM.
Compound O=C(Oc1cc(Br)ccc1-c1ccccn1)c1ccccc1 [W10] has an EC50 of 36.7 ± 15.8 µM.
Cc1cccnc1-c1ccc(Cl)cc1OC(=O)c1ccccc1 [W4] gave an EC50 of 54.4 ± 11.1 µM.

System: not listed separately
Test: Cytotoxicity on uninfected HeLa cells (MTT, 48 h)
Assay type: cell-based
Conditions: human, read-out: CC50 (reduce cell viability by 50%), ADV7 host cells
Description: (§3) Human laryngeal carcinoma cells (Hep-2) and human cervical carcinoma cells (HeLa) were maintained in DMEM (Gibco) supplemented with 10% fetal bovine serum (FBS; Gibco), 100 U/mL penicillin and streptomycin, and 2 mM L-glutamine.
as §2
Cc1cccnc1-c1ccc(Br)cc1OC(=O)c1ccccc1 [W12] showed a CC50 at 48 h of 211 ± 14.7 µM.
In the case of CC(=O)c1ccc(-c2ccccn2)c(OC(=O)c2ccccc2)c1 [W14], the CC50 at 48 h is reported as 979 ± 27.8 µM.
With Cc1cccc(OC(=O)c2ccccc2)c1-c1ccccn1 [W3] the CC50 at 48 h was 921 ± 59.5 µM.
Compound O=C(Oc1ccccc1-c1ccccn1)c1ccccc1 [W1] has a CC50 at 48 h of 1060 ± 93.5 µM.
For COc1ccc(OC(=O)c2ccccc2)c(-c2ncccc2C)c1 [W5], the CC50 at 48 h was 38.9 ± 18.8 µM.
In the case of O=C(Oc1ccsc1-c1ccccn1)c1ccccc1 [W11], the CC50 at 48 h is reported as 1020 ± 72.6 µM.
Compound Cc1ccc(OC(=O)c2ccccc2)c(-c2ncccc2C)c1 [W6] has a CC50 at 48 h of 326 ± 21.8 µM.
In the case of COc1ccc(-c2ccccn2)c(OC(=O)c2ccccc2)c1 [W2], the CC50 at 48 h is reported as greater than 656 µM.
Work on Cc1cccnc1-c1ccc(F)cc1OC(=O)c1ccccc1 [W8] yielded a CC50 at 48 h of 843 ± 37.1 µM.
In the case of O=C(Oc1cc(Br)ccc1-c1ccccn1)c1ccccc1 [W10], the CC50 at 48 h is reported as 249 ± 23.2 µM.
Cc1cccnc1-c1sccc1OC(=O)c1ccccc1 [W7] showed a CC50 at 48 h of 1030 ± 63.1 µM.
Cc1cccnc1-c1ccc(Cl)cc1OC(=O)c1ccccc1 [W4] showed a CC50 at 48 h of 797 ± 45.7 µM.

System: not listed separately
Test: Cytotoxicity on uninfected Hep-2 cells (MTT, 48 h)
Assay type: cell-based
Conditions: human, read-out: CC50 (reduce cell viability by 50%), CVB3 host cells
Description: as §3, §2
Cc1cccnc1-c1ccc(Br)cc1OC(=O)c1ccccc1 [W12] gave a CC50 at 48 h of 128 ± 17.9 µM.
For CC(=O)c1ccc(-c2ccccn2)c(OC(=O)c2ccccc2)c1 [W14], the CC50 at 48 h was 490 ± 26.8 µM.
With Cc1cccc(OC(=O)c2ccccc2)c1-c1ccccn1 [W3] the CC50 at 48 h was 630 ± 39.4 µM.
For O=C(Oc1ccccc1-c1ccccn1)c1ccccc1 [W1], the CC50 at 48 h was 594 ± 49.1 µM.
Compound COc1ccc(OC(=O)c2ccccc2)c(-c2ncccc2C)c1 [W5] has a CC50 at 48 h of 33.5 ± 9.4 µM.
For O=C(Oc1ccsc1-c1ccccn1)c1ccccc1 [W11], the CC50 at 48 h was 378 ± 19.2 µM.
In the case of Cc1ccc(OC(=O)c2ccccc2)c(-c2ncccc2C)c1 [W6], the CC50 at 48 h is reported as 244 ± 30.4 µM.
COc1ccc(-c2ccccn2)c(OC(=O)c2ccccc2)c1 [W2] gave a CC50 at 48 h of 240 ± 22 µM.
Work on Cc1cccnc1-c1ccc(F)cc1OC(=O)c1ccccc1 [W8] yielded a CC50 at 48 h of 354 ± 49.5 µM.
O=C(Oc1cc(Br)ccc1-c1ccccn1)c1ccccc1 [W10] gave a CC50 at 48 h of 184 ± 26.3 µM.
Work on Cc1cccnc1-c1sccc1OC(=O)c1ccccc1 [W7] yielded a CC50 at 48 h of 350 ± 28.8 µM.
For Cc1cccnc1-c1ccc(Cl)cc1OC(=O)c1ccccc1 [W4], the CC50 at 48 h was 222 ± 24.1 µM.
